# Entries after “also recorded” stand apart in the source; their conditions may differ.
# Assays:
# HCT-116 = assay: XTT cytotoxicity assay; assay type: cell-based, human; conditions: average ± standard deviation of 2-4 independent assays, read-out: Inhibition of Cancer Cell Proliferation (IC50) HCT-116
# Experimental: (§1) In initial experiments, compounds 4a-g and 7c-g were evaluated for their cytotoxicity against human breast cancer cell lines MCF-7 and MDA-MB-468 and human colon cancer cell line HCT-116. The makaluvamine compounds provided in Table 2 were also evaluated for their cytotoxicity against human breast cancer cell lines MCF-7. Compound nos. 8 and 27-33 were not evaluated in this experiment. Cells were obtained from ATCC (Manassas, Va.). For each derivative the IC50 value was determined using data generated from 2-4 independent tetrazolium-based (XTT) cytotoxicity assays (R & D Systems Inc., Minneapolis, Minn.) according to the manufacturer's instructions. […] MCF-7, MDA-MD-468 and HCT-116 cells were grown at 37 degrees C. in a humidified atmosphere with complete growth media supplemented with fetal bovine serum. Growth media was changed 2-3 times per week as required.
# MCF-7 = assay: XTT cytotoxicity assay; assay type: cell-based, human; conditions: XTT; average ± standard deviation of 2-4 independent assays; read-out: Inhibition of Cancer Cell Proliferation (IC50) MCF-7
# Experimental: as §1
# MDA-MB-468 = assay: XTT cytotoxicity assay; assay type: cell-based, human; conditions: average ± standard deviation of 2-4 independent assays, read-out: Inhibition of Cancer Cell Proliferation (IC50) MDA-MB-468
# Experimental: as §1
# topoisomerase II = target: T1, topoisomerase II (Homo sapiens, UniProt P11388); assay: Topoisomerase II drug screening kit (relaxation of plasmid DNA); assay type: biochemical; set-up: key to Topoisomerase II Inhibition: — none; + low; ++ moderate; +++ strong; conditions: for Topoisomerase II Inhibition: 100 μM drug compound, topoisomerase II (4U), 500 ng plasmid DNA; for inhibition of topoisomerase II catalytic activity (in words): 100 μM makaluvamine derivative
# T1 construct: purchased TopoGEN, Inc., Port Orange, Fla
# T1 sequence (P11388 whole entry): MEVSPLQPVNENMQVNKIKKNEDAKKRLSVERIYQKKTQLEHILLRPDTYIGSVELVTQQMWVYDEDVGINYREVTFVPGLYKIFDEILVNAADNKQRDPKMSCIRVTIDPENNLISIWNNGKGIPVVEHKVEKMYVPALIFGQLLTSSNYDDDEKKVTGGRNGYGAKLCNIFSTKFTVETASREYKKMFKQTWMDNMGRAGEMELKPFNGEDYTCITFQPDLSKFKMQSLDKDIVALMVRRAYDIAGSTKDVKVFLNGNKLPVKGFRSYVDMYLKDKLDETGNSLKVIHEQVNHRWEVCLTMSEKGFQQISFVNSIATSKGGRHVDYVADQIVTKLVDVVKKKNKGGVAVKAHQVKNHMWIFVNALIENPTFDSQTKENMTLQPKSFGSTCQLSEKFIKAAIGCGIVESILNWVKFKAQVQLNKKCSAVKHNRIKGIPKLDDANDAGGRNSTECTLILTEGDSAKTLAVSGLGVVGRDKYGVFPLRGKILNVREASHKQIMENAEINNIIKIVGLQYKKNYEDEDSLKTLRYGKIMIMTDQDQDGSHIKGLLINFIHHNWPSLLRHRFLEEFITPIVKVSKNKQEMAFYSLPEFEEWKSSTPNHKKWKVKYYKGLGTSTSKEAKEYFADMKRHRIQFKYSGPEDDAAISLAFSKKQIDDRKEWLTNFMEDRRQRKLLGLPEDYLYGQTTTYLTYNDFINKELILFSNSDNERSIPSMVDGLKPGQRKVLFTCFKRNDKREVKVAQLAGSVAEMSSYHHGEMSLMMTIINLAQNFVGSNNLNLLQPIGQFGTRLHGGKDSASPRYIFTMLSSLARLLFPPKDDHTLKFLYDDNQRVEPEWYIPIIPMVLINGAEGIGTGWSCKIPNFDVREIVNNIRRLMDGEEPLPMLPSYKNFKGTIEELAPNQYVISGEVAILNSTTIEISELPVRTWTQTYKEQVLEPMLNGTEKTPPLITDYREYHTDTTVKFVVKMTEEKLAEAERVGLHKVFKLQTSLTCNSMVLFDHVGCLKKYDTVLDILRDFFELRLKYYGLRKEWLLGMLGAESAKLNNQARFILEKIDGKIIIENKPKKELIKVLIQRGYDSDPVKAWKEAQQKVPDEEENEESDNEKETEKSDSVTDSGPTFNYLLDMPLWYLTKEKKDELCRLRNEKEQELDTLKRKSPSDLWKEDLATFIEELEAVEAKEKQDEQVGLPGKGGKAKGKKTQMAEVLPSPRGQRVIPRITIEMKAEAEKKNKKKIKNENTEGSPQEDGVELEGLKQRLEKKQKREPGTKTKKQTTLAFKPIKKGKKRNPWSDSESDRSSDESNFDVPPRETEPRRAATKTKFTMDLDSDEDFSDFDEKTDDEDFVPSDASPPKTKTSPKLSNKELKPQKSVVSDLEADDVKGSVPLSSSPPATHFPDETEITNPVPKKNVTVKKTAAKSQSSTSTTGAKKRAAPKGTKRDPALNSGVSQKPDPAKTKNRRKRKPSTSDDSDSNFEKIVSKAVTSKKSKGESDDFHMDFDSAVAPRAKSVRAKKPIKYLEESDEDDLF
# Text: In order to determine the effect of the makaluvamine derivatives of the present disclosure, the synthesized makaluvamine derivatives were screened for their ability to inhibit topoisomerase II activity in vitro. Topoisomerase II functions by generating a double-stranded DNA break followed by resealing of the break. Topoisomerase II inhibitors interfere with the breakage-rejoining reaction thereby trapping the enzyme in a cleavage complex. In order to determine if the disclosed makaluvamine derivatives inhibited topoisomerase II activity, nine of the derivatives were tested for topoisomerase II inhibitory activity using a topoisomerase-II drug screening kit (TopoGEN, Inc., Port Orange, Fla.) according to the manufacturer's instructions. The screening kit uses a supercoiled plasmid DNA substrate (pRYG) which contains one topoisomerase II cleavage/recognition site. […] Relaxed DNA was separated using non-ethidium bromide (EtBr) agarose gels, then stained with EtBr and quantified using Kodak Gel Logic Imaging System and Molecular Imaging software (Eastman Kodak Co., Rochester, N.Y.). Inhibition of relaxation of plasmid DNA or catalytic activity was reported as; − none, + low, ++ moderate, or +++ strong.
# MCF7 cells = assay: MTT growth inhibition assay; assay type: cell-based, human; conditions: Table 5, MTT, 72 hr; for IC50: read-out: Growth inhibitory activity (IC50) in MCF7 cells
# Experimental: The cell lines were obtained from the American Type Culture Collection (Rockville, Md.) and were grown as follows: MCF-7 (p53 wt) breast cancer cells were grown in DMEM media containing 1 mM non-essential amino acids, Earle's BSS, 1 mM Na pyruvate, and 10 mg/L bovine insulin.
# All media contained 10% FBS and 1% penicillin/streptomycin unless otherwise specified. The effects of disclosed compounds on human cancer cell growth, expressed as the percentage of cell survival, were determined by the MTT [3-(4,5-Dimethyl-2-thiazolyl)-2,5-diphenyl-2H-tetrazolium bromide] assay. Cells were grown in 96-well plates and exposed to the test compounds (0, 0.01, 0.1, 1, 10, 100 μM) for 72 hr followed by addition of 10 μL MTT solution (5 mg/mL; Sigma; St. Louis, Mo.) to each well. The plates were incubated for 2-4 hr at 37° C. The supernatant was then removed and formazan crystals were dissolved with 100 μL of DMSO. The absorbance at 570 nm was recorded with an OPTImax microplate reader (Molecular Devices; Sunnyvale, Calif.). The cell survival percentages were calculated by dividing the mean OD of compound containing wells by that of DMSO-control wells. Three separate experiments were accomplished to determine the IC50.
# MDM2 = assay: Protein expression, Western blot in MCF-7 cells; assay type: cell-based, human; conditions: 1 μM, 6 h (FIG. 4A)
# Experimental: (§2) In FIG. 4A, MCF-7 cells were exposed to 1 μM concentration of the indicated compounds for 6 hours. Western blots were probed with antibodies specific for the proteins indicated. Numbers below each lane show densitometry readings for each lane as compared to control. […] Western blots were probed with antibodies specific for the proteins indicated.
# (§3) To determine the disclosed compounds effect on protein expression in human breast cancer cells, cultured MCF-7 cells were exposed to various concentrations of the test compounds for 6 h (FIG. 4A) or 24 h (FIG. 4B). Cell lysates were fractionated with identical amounts of protein by SDS-PAGE and transferred to Bio-Rad trans-Blot nitrocellulose membranes (Bio-Rad Laboratories, Hercules, Calif.). The nitrocellulose membrane was incubated in blocking buffer (Tris-buffered saline containing 0.1% Tween 20 and 5% nonfat milk) for 1 h at room temperature, then with the appropriate primary antibody overnight at 4° C. or 2 h at room temperature with gentle shaking. Finally, the membrane was washed three times with the washing buffer (Tris-buffered saline containing 0.1% Tween 20) for 15 min, incubated with goat anti mouse/rabbit IgG-horseradish peroxidase-conjugated antibody (Bio-Rad) for 1 h at room temperature, and washed again (in triplicate). The protein of interest was detected by enhanced chemiluminescence reagents from PerkinElmer LAS, Inc (Boston, Mass.).
# p21 = assay: Protein expression, Western blot in MCF-7 cells; assay type: cell-based, human; conditions: 1 μM, 6 h (FIG. 4A)
# Experimental: as §2, §3
# p53 = assay: Protein expression, Western blot in MCF-7 cells; assay type: cell-based, human; conditions: 1 μM, 6 h (FIG. 4A)
# Experimental: as §2, §3
Compound,IC50 (HCT-116) [µM],IC50 (MCF-7) [nM],IC50 (MDA-MB-468) [nM],Topoisomerase II Inhibition (topoisomerase II),inhibition of topoisomerase II catalytic activity (in words) (topoisomerase II),Growth inhibitory activity (IC50) in MCF7 cells (MCF7 cells),IC50 (MCF7 cells) [nM],expression of MDM2 (MDM2),expression of p21 (p21),expression of p53 (p53)
O=C1C(NCCc2cc(Br)c(O)c(Br)c2)=CC2=NCCc3c[nH]c1c32 [Compound 4f],14.4 ± 1.2,13200 ± 3100,4500 ± 800,+++,comparable to etoposide and m-AMSA; also recorded: strongest inhibition,μM range,2720,increased the expression,increased the expression,increased the expression
O=C1C(NCCc2c[nH]c3ccccc23)=CC2=NCCc3c[nH]c1c32 [Compound 4g],5.2 ± 0.8,1600 ± 200,400 ± 10,—,,,,,,
"COc1cc(NS(C)(=O)=O)ccc1Nc1c2ccccc2nc2ccccc12 [m-AMSA, reference compound]",0.7,21700,8500,++,,,,,,
CCNC1=CC2=NCCc3c[nH]c(c32)C1=O [Compound 4b],3.6 ± 0.7,1300 ± 300,400 ± 30,—,,,,,,
Cc1ccc(S(=O)(=O)n2cc3c4c2C(=O)C(NCc2ccccc2)=CC4=NCC3)cc1 [Compound 7c],2.7 ± 1.5,1800 ± 200,1000 ± 10,+++,comparable to etoposide and m-AMSA; also recorded: strongest inhibition,μM range,1200,inhibited the expression,decreased the expression,increased the expression

# Reference: patent publication US20100144779A1, “Marine Alkalod Makaluvamines and Derivatives Thereof” (THE UAB RESEARCH FOUNDATION, priority 2007, published 2010)
